Experimental data reported in patent publication US7270805B1, “Skin lightening agents, compositions and methods” (Conopco, Inc., priority 2006, dated 2007).

Test system: Melanoderm cultures
Test: Solvable melanin assay on Melanoderm cultures (3-D skin model)
Assay type: cell-based
Conditions: for OD = 490 nm (melanin content, Solvable melanin assay): Melanoderm cultures fed every other day for 2 weeks, DMSO control 1.292, untreated 1.259
Procedure: This experiment was carried out using Melanoderm cultures. Luminescence was measured using a chromameter to assay the degree of melanization of a 3-D skin model.
Method for Melanoderm Cultures
Melanoderm cultures were obtained from MatTek Corporation, Ashland, Mass. The Melanoderm was maintained according to the manufacturer's instructions. The basal media used for the maintenance of the Melanoderm cultures was DMEM supplemented with unspecified quantities of Epidermal growth factor, Insulin, Hydrocortisone, and proprietary epidermal differentiation compounds, in addition to anti-fungal and antibiotics.
For the long term maintenance of the Melanoderms, the basal media was supplemented with both bFGF and a-MSH, compounds which are stimulators of melanocyte growth and melanogenesis. The cultures were fed every other day for a total of 2 weeks—fresh active preparations, prepared in DMSO or culture media, were also applied to the Melanoderms when feeding was performed. Each treatment condition was done in duplicate and digital photographs were taken of the Melanoderm cultures to assess overall pigmentation. As well, microscopic images of the Melanoderms were done to assess the cell viability of the keratinocytes and melanocytes. For further evidence that the treatments were/not cytotoxic, an LDH assay (Promega, Madison, Wis.) was performed on the supernatants from 24 hour post-treatment cultures.
To prepare tissues for assay:
After treatment, tissues are usually frozen until completion of the experiment. Thaw tissues, a few at a time and place in D-PBS to remove excess phenol red from the culture medium and residual test article. Remove a single tissue from the insert. Blot dry and place in 1.7 ml. microfuge tube. Repeat for all samples. Add 250 ul Solvable™ (Tissue and Gel Solubilizer 0.5 M—Packard BioScience Co. Catalogue No. 6NE9100 (NEF910)). Close the tube and make sure that the tissue is completely submerged. Incubate at 60° C. overnight along with standards. In the morning, vortex the samples. Sometimes thick tissues will require additional time to complete the solution process. To prepare standard: Dissolve Melanin (Sigma cat. M 8631) in Solvable at 1 mg/ml. The solution may be warmed gently for 15 minutes at 37° C. Store solution in dark. To prepare standard curve: Prepare dilutions from the standard containing 0 ug to 250 ug of melanin in a total of 250 ul Solvable. Incubate dilutions along with samples. To read assay: Cool samples and standards. Centrifuge at 13,000 rpm for 5 minutes to pellet. Fill microwell plate (C-96) with 200 ul each of samples and standards. There is some foaming of samples when pipetted. Blow gently across the samples to break bubbles prior to reading the plate. Read plate at […].

With CCC(=O)n1c(=O)sc2ccccc21 [3-propionylbenzothiazol-2-one] the “OD = 490 nm (melanin content, Solvable melanin assay)” value (“OD = 490 nm” for short) (125 uM) was 1.522, the “OD = 490 nm” value (250 uM) was 1.509 and the “OD = 490 nm” value (375 uM) was 1.377. The “OD = 490 nm” value (500 uM) was 0.889, the “OD = 490 nm” value (750 uM) was 0.727 and the “OD = 490 nm” value (1000 uM) was 0.184. The “effect on melanin synthesis” value (conclusion from Table 5, Melanoderm cultures) was “reduce melanin synthesis”.
